In patent publication US20250002476A1, “AZOLE COMPOUNDS FOR CONTROLLING INVERTEBRATE PESTS” (FMC Corporation, priority 2021, published 2025):

What was measured:
Type in all cases: in vivo
[1] = tested on: Corn Planthopper (Peregrinus maidis (Ashmead)); assay: Test B: control of Corn Planthopper on sprayed corn plant; conditions: 144 h, nymphs, 6 days; for mortality at 50 ppm: sprayed at 50 ppm; for mortality at 10 ppm: sprayed at 10 ppm; for mortality at 250 ppm: sprayed at 250 ppm
Procedure: (§1) Test compounds were formulated using a solution containing 10% acetone, 90% water and 300 ppm Activator 90@ non-ionic surfactant (Loveland Products, Loveland, Colorado, USA). The formulated compounds were applied in 1 mL of liquid through an atomized nozzle positioned 1.27 cm (0.5 inches) above the top of each test unit. Test compounds were sprayed at the rates indicated, and each test was replicated three times.
For evaluating control of Corn Planthopper (Peregrinus maidis (Ashmead)) through contact and/or systemic means, the test unit consisted of a small open container with a 3-4-day-old corn (maize) plant inside. White sand was added to the top of the soil prior to application of the test compound.
Test compounds were formulated and sprayed at 250, 50 and 10 ppm. After spraying of the formulated test compound, the test units were allowed to dry for 1 h before they were post-infested with ˜15-20 nymphs (18-to-21-day-old). A black, screened cap was placed on the top of each test unit, and the test units were held for 6 days in a growth chamber at 22-24° C. and 50-70% relative humidity. Each test unit was then visually assessed for insect mortality.

[2] = tested on: Green Peach Aphid (Myzus persicae (Sulzer)); assay: Test D: control of Green Peach Aphid on sprayed radish plant; conditions: 144 h, pre-infested, 6 days; for mortality at 250 ppm: sprayed at 250 ppm; for mortality at 50 ppm: sprayed at 50 ppm
Procedure: as §1
For evaluating control of Green Peach Aphid (Myzus persicae (Sulzer)) through contact and/or systemic means, the test unit consisted of a small open container with a 12-15-day-old radish plant inside. Prior to compound application, each test unit was pre-infested by placing on a leaf of the test plant 30-40 aphids on a piece of leaf excised from a culture plant (cut-leaf method). The aphids moved onto the test plant as the leaf piece desiccated. After pre-infestation, the soil of the test unit was covered with a layer of sand.
Test compounds were formulated and sprayed at 250 and 50 ppm. After spraying of the formulated test compound, each test unit was allowed to dry for 1 hour and then a black, screened cap was placed on top. The test units were held for 6 days in a growth chamber at 19-21° C. and 50-70% relative humidity. Each test unit was then visually assessed for insect mortality.

[3] = tested on: cotton melon aphid (Aphis gossypii (Glover)); assay: Test E: control of cotton melon aphid on sprayed okra plant; conditions: 144 h, pre-infested, 6 days; for mortality at 50 ppm: sprayed at 50 ppm; for mortality at 10 ppm: sprayed at 10 ppm; for mortality at 250 ppm: sprayed at 250 ppm
Procedure: as §1
For evaluating control of cotton melon aphid (Aphis gossypii (Glover)) through contact and/or systemic means, the test unit consisted of a small open container with a 5-day-old okra plant inside. This was pre-infested with 30-40 insects on a piece of leaf according to the cut-leaf method, and the soil of the test unit was covered with a layer of sand.
Test compounds were formulated and sprayed at 250, 50, 10 and 2 ppm. After spraying, the test units were maintained in a growth chamber for 6 days at 19° C. and 70% relative humidity. Each test unit was then visually assessed for insect mortality.

[4] = tested on: silverleaf whitefly (Bemisia argentifolii (Bellows and Perring)); assay: Test F: control of silverleaf whitefly on sprayed soybean plant; conditions: 288 h, pre-infested (oviposition), 12 days; for mortality at 50 ppm: sprayed at 50 ppm; for mortality at 250 ppm: sprayed at 250 ppm
Procedure: as §1
For evaluating control of silverleaf whitefly (Bemisia argentifolii (Bellows and Perring)) through contact and/or systemic means, each test unit consisted of a small open container with a 5-7 day old soybean plant inside. This was pre-infested by placing test units into cages containing adult whiteflies so that oviposition on the leaves could occur. The adults were removed from the plants with an air-blast nozzle, and the test units were capped. The test units were then stored 2 to 3 days before spraying.
Test compounds were formulated and sprayed at 250 and 50 ppm. After spraying, the test units were maintained in a growth chamber for 12 days at 23° C. and 70% relative humidity. Each test unit was then visually assessed for insect mortality.

CCC#CCn1cc(-c2cccc(C(F)(F)F)c2)nn1 [Compound 3, 1-(2-Pentyn-1-yl)-4-[3-(trifluoromethyl)phenyl]-1H-1,2,3-triazole]
mortality at 50 ppm [1]: ≥ 80%

CCC#CCn1nnc(-c2ccc(Cl)cc2)n1 [Compound 60, 5-(4-chlorophenyl)-2-(pent-2-yn-1-yl)-1,2,3,4-tetrazole]
mortality at 250 ppm [2]: ≥ 80% | mortality at 50 ppm [3]: ≥ 80%

CCC#CCn1nnc(-c2ccc(C(F)(F)F)cc2)n1 [Compound 64, 2-(2-Pentyn-1-yl)-5-[4-(trifluoromethyl)phenyl]-2H-tetrazole]
mortality at 50 ppm [2]: ≥ 80% | mortality at 10 ppm [1]: ≥ 80% | mortality at 10 ppm [3]: ≥ 80%

CCC#CCn1cc(-c2ccccc2)cn1 [Compound 114]
mortality at 250 ppm [1]: ≥ 80% | mortality at 250 ppm [3]: ≥ 80%

CCC#CCn1nnc(-c2ccc(C(F)(F)F)cn2)n1 [Compound 122]
mortality at 250 ppm [1]: ≥ 80%

CCC#CCn1cc(-c2ccc(C(F)(F)F)cn2)nn1 [Compound 123, 2-[1-(2-Pentyn-1-yl)-1H-1,2,3-triazol-4-yl]-5-(trifluoromethyl)pyridine]
mortality at 50 ppm [1]: ≥ 80% | mortality at 50 ppm [3]: ≥ 80%

CCC#CCn1ncc(-c2ccc(C(F)(F)F)cn2)n1 [Compound 124, 2-[2-(2-Pentyn-1-yl)-2H-1,2,3-triazol-4-yl]-5-(trifluoromethyl)pyridine]
mortality at 50 ppm [2]: ≥ 80% | mortality at 50 ppm [1]: ≥ 80% | mortality at 50 ppm [3]: ≥ 80%

CCC#CCn1cc(-c2ccc(C(F)(F)F)nc2)nn1 [Compound 125]
mortality at 250 ppm [1]: ≥ 80%

CCC#CCn1ncc(-c2ccc(C(F)(F)F)nc2)n1 [Compound 126, 5-[2-(2-Pentyn-1-yl)-2H-1,2,3-triazol-4-yl]-2-(trifluoromethyl)pyridine]
mortality at 50 ppm [2]: ≥ 80% | mortality at 10 ppm [1]: ≥ 80% | mortality at 10 ppm [3]: ≥ 80%

CCC#CCn1nnc(-c2ccsc2)n1 [Compound 129]
mortality at 250 ppm [3]: ≥ 80%

CCC#CCn1nnc(-c2cccs2)n1 [Compound 130]
mortality at 250 ppm [3]: ≥ 80%

CCC#CCn1ncc(-c2ccc(Cl)cn2)n1 [Compound 141]
mortality at 50 ppm [4]: ≥ 50% | mortality at 250 ppm [2]: ≥ 80% | mortality at 250 ppm [3]: ≥ 80%

CCC#CCn1cc(-c2ccc(F)cn2)nn1 [Compound 149]
mortality at 50 ppm [1]: ≥ 80% | mortality at 250 ppm [3]: ≥ 80%

CCC#CCn1ncc(-c2ccc(F)cn2)n1 [Compound 150]
mortality at 250 ppm [2]: ≥ 80% | mortality at 50 ppm [1]: ≥ 80% | mortality at 50 ppm [3]: ≥ 80%

CCC#CCn1cc(-c2cncc(F)c2)nn1 [Compound 154]
mortality at 250 ppm [1]: ≥ 80% | mortality at 250 ppm [3]: ≥ 80%

CCC#CCn1cc(-c2ccc(Cl)nc2)nn1 [Compound 156]
mortality at 250 ppm [3]: ≥ 80%

CCC#CCn1nnc(-c2ccc3ccccc3c2)n1 [Compound 168]
mortality at 50 ppm [1]: ≥ 80% | mortality at 50 ppm [3]: ≥ 80%

CCC#CCn1nnc(-c2cnc3ccccc3c2)n1 [Compound 169]
mortality at 250 ppm [1]: ≥ 80% | mortality at 50 ppm [3]: ≥ 80%

CCC#CCn1ncc(-c2cc(F)cc(C#N)c2)n1 [Compound 175, 3-Fluoro-5-[2-(2-pentyn-1-yl)-2H-1,2,3-triazol-4-yl]benzonitrile]
mortality at 50 ppm [1]: ≥ 80% | mortality at 50 ppm [3]: ≥ 80%

CCC#CCn1nnc(-c2cc(C(F)(F)F)ccn2)n1 [Compound 177]
mortality at 50 ppm [3]: ≥ 80%

CCC#CCn1nnc(-c2ccnc(C(F)(F)F)c2)n1 [Compound 188]
mortality at 250 ppm [2]: ≥ 80% | mortality at 10 ppm [1]: ≥ 80% | mortality at 50 ppm [3]: ≥ 80% | mortality at 250 ppm [3]: ≥ 80%

CCC#CCn1nnc(-c2cc3ccccc3o2)n1 [Compound 194]
mortality at 250 ppm [1]: ≥ 80% | mortality at 50 ppm [3]: ≥ 80%

CCC#CCn1ncc(-c2ccnc(C(F)(F)F)c2)n1 [Compound 197]
mortality at 50 ppm [1]: ≥ 80% | mortality at 50 ppm [3]: ≥ 80%

CCC#CCn1cc(-c2ccnc(C(F)(F)F)c2)nn1 [Compound 198]
mortality at 250 ppm [1]: ≥ 80% | mortality at 250 ppm [3]: ≥ 80%

CCC#CCn1ncc(-c2cc(C(F)(F)F)ccn2)n1 [Compound 203]
mortality at 250 ppm [2]: ≥ 80% | mortality at 250 ppm [1]: ≥ 80% | mortality at 50 ppm [3]: ≥ 80%

CCC#CCn1ncc(-c2cncc(C(F)(F)F)c2)n1 [Compound 204, 3-[2-(2-Pentyn-1-yl)-2H-1,2,3-triazol-4-yl]-5-(trifluoromethyl)pyridine]
mortality at 50 ppm [2]: ≥ 80% | mortality at 50 ppm [1]: ≥ 80% | mortality at 10 ppm [3]: ≥ 80%

CCC#CCn1cc(-c2cncc(C(F)(F)F)c2)nn1 [Compound 205]
mortality at 250 ppm [1]: ≥ 80% | mortality at 250 ppm [3]: ≥ 80%

CCC#CCn1cc(-c2ccc(OC(F)(F)F)nc2)nn1 [Compound 206]
mortality at 250 ppm [1]: ≥ 80%

CCC#CCn1ncc(-c2ccc(OC(F)(F)F)nc2)n1 [Compound 207, 5-[2-(2-Pentyn-1-yl)-2H-1,2,3-triazol-4-yl]-2-(trifluoromethoxy)pyridine]
mortality at 50 ppm [2]: ≥ 80% | mortality at 50 ppm [1]: ≥ 80% | mortality at 50 ppm [3]: ≥ 80%

CCC#CCn1cc(-c2cc(C(F)(F)F)ccn2)nn1 [Compound 208]
mortality at 50 ppm [1]: ≥ 80% | mortality at 250 ppm [3]: ≥ 80%

CCC#CCn1cc(-c2cccc(C(F)(F)F)n2)nn1 [Compound 212]
mortality at 250 ppm [1]: ≥ 80%

CCC#CCn1ncc(-c2cccc(C(F)(F)F)n2)n1 [Compound 213]
mortality at 250 ppm [2]: ≥ 80% | mortality at 250 ppm [1]: ≥ 80% | mortality at 50 ppm [3]: ≥ 80%

CCC#CCn1ncc(-c2ccnc(C#N)c2)n1 [Compound 219]
mortality at 50 ppm [3]: ≥ 80%

CCC#CCn1nnc(-c2ccnc(C#N)c2)n1 [Compound 222]
mortality at 50 ppm [3]: ≥ 80%

CCC#CCn1nnc(-c2cc(OC)ccn2)n1 [Compound 223]
mortality at 250 ppm [3]: ≥ 80%

CCC#CCn1ncc(-c2cncc(C#N)c2)n1 [Compound 232]
mortality at 50 ppm [3]: ≥ 80%

CCC#CCn1cc(-c2cncc(C#N)c2)nn1 [Compound 233]
mortality at 250 ppm [3]: ≥ 80%

CCC#CCn1ncc(-c2cc(OC)ccn2)n1 [Compound 234]
mortality at 250 ppm [3]: ≥ 80%

CCC#CCn1nnc(-c2ccnc(OC)c2)n1 [Compound 236, 2-Methoxy-4-[2-(2-pentyn-1-yl)-2H-tetrazol-5-yl]pyridine]
mortality at 250 ppm [2]: ≥ 80% | mortality at 50 ppm [1]: ≥ 80% | mortality at 50 ppm [3]: ≥ 80%

CCC#CCn1ncc(-c2cccc(OC)n2)n1 [Compound 237]
mortality at 50 ppm [1]: ≥ 80% | mortality at 250 ppm [3]: ≥ 80%

CCC#CCn1cc(-c2cccc(C#N)n2)nn1 [Compound 249]
mortality at 250 ppm [3]: ≥ 80%

CCC#CCn1ncc(-c2cccc(C#N)n2)n1 [Compound 250]
mortality at 50 ppm [1]: ≥ 80% | mortality at 50 ppm [3]: ≥ 80%

CCC#CCn1nnc(-c2cccc(OC)n2)n1 [Compound 251]
mortality at 250 ppm [1]: ≥ 80% | mortality at 250 ppm [3]: ≥ 80%

CCC#CCn1ncc(-c2cncc(OC)c2)n1 [Compound 252]
mortality at 250 ppm [3]: ≥ 80%

CCC#CCn1cc(-c2cncc(OC)c2)nn1 [Compound 255]
mortality at 250 ppm [1]: ≥ 80%

CCC#CCn1nnc(-c2cc(OC)cc(C(F)(F)F)c2)n1 [Compound 286, 5-[3-Methoxy-5-(trifluoromethyl)phenyl]-2-(2-pentyn-1-yl)-2H-tetrazole]
mortality at 50 ppm [4]: ≥ 50% | mortality at 250 ppm [1]: ≥ 80% | mortality at 50 ppm [3]: ≥ 80%

COCC#CCn1ncc(-c2ccc(C(F)(F)F)cc2)n1 [Compound 299]
mortality at 250 ppm [4]: ≥ 50%

COCC#CCn1nnc(-c2ccc(C(F)(F)F)cc2)n1 [Compound 300]
mortality at 250 ppm [4]: ≥ 50% | mortality at 250 ppm [3]: ≥ 80%

CCC#CCn1nnc(-c2cc(C#N)ccn2)n1 [Compound 303]
mortality at 250 ppm [3]: ≥ 80%

CCC#CCn1nnc(-c2ccc(OC(F)F)cc2)n1 [Compound 311, 5-[4-(Difluoromethoxy)phenyl]-2-(2-pentyn-1-yl)-2H-tetrazole]
mortality at 50 ppm [4]: ≥ 50% | mortality at 50 ppm [1]: ≥ 80% | mortality at 50 ppm [3]: ≥ 80%
